From patent publication US20230414754A1, “CONDITIONAL CONTROL OF UNIVERSAL CAR T CELLS THROUGH STIMULUS-REACTIVE ADAPTORS” (UNIVERSITY OF PITTSBURGH-OF THE COMMONWEALTH SYSTEM OF …, priority 2020, published 2023)

Columns and labels:
SNAPtag = test: Incubation of MTGase-made adaptor with SNAP protein, SDS-PAGE; assay type: biochemical; settings: SNAPtag 2 eq. per BG
Experimental: (§1) 55. FIGS. 26A and 26B show MTGase enzymatic antibody-adaptor conjugation. […] CD69 T cell activation marker expression on the CAR T cells was evaluated after 24 h. n=3 biol. reps.
(§2) 187. In a complementary, enzymatic conjugation approach we synthesized the terminal amine 11 from the commercially available PEG 10 (FIG. 12A), and target a conserved glutamine located in each of the heavy chains of the de-glycosylated IgG1 antibody through selective modification by the enzyme MTGase (FIG. 12B). This generates uniform conjugates in quantitative yields adding exactly two modifications using conserved glutamines as the only γ-carbonyl amide donors on dei-glycosylated IgGls, This method that has been used for dozens of clinical use ADCs. […] In addition, the site-specific adaptor was efficient at inducing T cell activity (FIG. 26B).

CD20+ Raji target cells = test: SNAP-CAR T cell activation (CD69) with MTGase-produced site-specific adaptor; assay type: cell-based, human; settings: CD69 after 24 h
Experimental: as §1, §2

SNAP-synNotch receptor = SNAP-synNotch receptor activation in Jurkat cells co-incubated with target cells (TagBFP output); assay type: cell-based
From the text: 51. […] The system triggers Gal4-VP64 transcription factor-driven TagRFP expression. […] TagRFP levels are reported as mean fluorescence intensity (MFI), n=3 biologically independent experiments±s.d.
176. We created a universal adaptor synNotch to direct receptor activation and the resulting transcriptional gene output in response to interaction with BG-conjugated adaptor antibodies on the surface of target cells (FIG. 22). We cloned a SNAP-synNotch receptor consisting of the SNAPtag domain fused to the Notch core protein, and the Gal4-transcription factor (to turn on a gal4 promoter-driven TagBFP gene) and transduced Jurkat cells. […] Receptor activation was sensitive and tunable, with a significant response at an antibody concentration as low as 0.04 μglmL and increasing to a peak at 0.25 μg/mL. Response gene activation then decreased with increasing antibody indicative of a “hook effect”—as expected in ternary complex formation. BG-conjugated antibodies targeting other antigens were also capable of activating the SNAP-synNotch receptor in an antigen-specific manner indicating universality of the cell re-programming approach.

| Substance | BG labeling by incubation with SNAP protein (SNAPtag) | inducing T cell activity (CD20+ Raji target cells) | function of universal adaptor synNotch system (SNAP-synNotch receptor) |
| --- | --- | --- | --- |
| RTX-BG: PEG2-BG labeled Rituximab adaptor made via MTGase conjugation | near complete | efficient | – |
| mSA2 | – | – | ineffective |
